The experiment has as its system Enterobacter sakazakii. Description: ompA-PCR (469 bp) of EMA-treated Enterobacter sakazakii, band intensity of final amplified product. In kind it is cell-based. How it is done:
A Gram-negative bacterium, Enterobacter sakazakii (Enterobacter sakazakii ATCC […]; hereinafter, abbreviated as “sakazakii” in some cases), was cultured in brain-heart infusion (BHI) broth at 37° C., and 5 ml of the culture medium in the logarithmic growth phase was centrifuged at 8,000×g for 15 minutes at 4° C., followed by removal of the supernatant. 5 ml of physiological saline was added to the bacterial cells, and the whole was vigorously stirred and diluted 10-fold. Thus, a live cell suspension was prepared. […] The live cell suspension (1 ml) was placed in a 1.5-ml microtube, and the microtube was immersed in boiling water for 2 minutes and immediately cooled with ice water, to thereby prepare a injured cell suspension. The cells in the suspension probably include small numbers of live cells and dead cells but include mainly injured cells. Therefore, the cells are simply referred to as “injured cells”. Note that the method of the present invention is originally intended to detect live cells, and microorganism cells distinguished from live cells may be injured cells or dead cells. Ethidium monoazide (EMA) was added to the live cell suspension and injured cell suspension of sakazakii prepared above at a final concentration of 0, 10, 25, or 100 μg/ml, and the suspensions were allowed to stand under shading at 4° C. for 10 minutes. The suspensions were placed on ice and irradiated for 5 minutes with a 500-W visible light (FLOOD PRF: 100 […] ELECTRIC CO., LTD., wavelength: 500 to 700 nm) at a distance of 20 cm from the suspensions. Then, the suspensions were centrifuged at 15,000×g for 10 minutes at 4° C., and the supernatants were removed. An equal volume of physiological saline was added thereto, and the suspensions were stirred and centrifuged while cooling at 15,000×g for 10 minutes at 4° C., followed by removal of the supernatants. An equal volume of brain-heart infusion (BHI) broth was added thereto, and the suspensions were incubated at 37° C. for 2 hours. In the first EMA treatment, EMA was not added again to the live cell and injured cell suspensions having an EMA concentration of 0, while EMA was added again at a final concentration of 10 μg/ml to the live cell and injured cell suspensions having an EMA concentration of 10, 25, or 100 μg/ml. The suspensions were allowed to stand under shading at 4° C. for 10 minutes, placed on ice, and irradiated for 5 minutes with a 500-W visible light at a distance of 20 cm from the suspensions. Ethidium monoazide (EMA) was added to the live cell and injured cell suspensions of sakazakii prepared in the section “1.” at a final concentration of 0, 10, 25 or 100 μg/ml, and the suspensions were allowed to stand under shading at 4° C. for 10 minutes, placed on ice, and irradiated for 5 minutes with a 500-W visible light (FLOOD PRF: […] ELECTRIC CO., LTD., wavelength: 500 to 700 nm) at a distance of 20 cm from the suspensions. Microtubes including one of the live cell and injured cell suspensions of sakazakii treated in the sections 2-1) and 2-2) above were centrifuged at 15,000×g for 10 minutes at 4° C. The supernatants were removed, and 1 ml of physiological saline was added thereto. The resultant suspensions were stirred vigorously and centrifuged while cooling in the same way as above (washing treatment). One more washing treatment was performed in the same way, and the same amount of sterile water as the initial amount was added to the pellets, followed by vigorous stirring. PCR Master Mix (total volume: 25.25 μl) was prepared using Direct Buffer Mix (G&g SCIENCE CO., LTD., Yokohama, Kanagawa) capable of sequentially and automatically performing elution of chromosomal DNA from a bacterium and PCR reactions. […]

Take `CC[n+]1c(-c2ccccc2)c2cc(N=[N+]=[N-])ccc2c2ccc(N)cc21` [EMA, ethidium monoazide]: the “Band Intensity” value (multi-step: EMA 10 μg/ml + Incubation (37° C., 2 hr) + EMA 10 μg/ml, Injured cell) is reported as 0.000; the “Band Intensity” value (multi-step: EMA 10 μg/ml + Incubation (37° C., 2 hr) + EMA 10 μg/ml, Live cell) was determined as 1.546; the “Band Intensity” value (single-step EMA 10 μg/ml, Injured cell) worked out at 0.502; the “Band Intensity” value (single-step EMA 10 μg/ml, Live cell) was determined as 1.690.

The values are drawn from US8221975B2, “Method for detection of microorganism” (Morinaga Milk Industry Co., Ltd., priority 2007, dated 2012).
